According to the NIST ThermoML archive (doi:10.1016/j.jct.2012.05.012):

Columns and labels:
[1] = refractive index (Na D-line) (dimensionless); wn = mass fraction of the nth substance listed; settings: 101 kPa, Liquid, Standard Abbe refractometry
[2] = wn = mass fraction of the nth substance listed; settings: for surface tension liquid-gas: Maximal bubble pressure; for mass density: 101 kPa, Liquid, Vibrating tube method

CCCCn1cc[n+](C)c1.NCC(=O)[O-] [1-butyl-3-methylimidazolium glycinate] + O
Settings | mass density [kg/m3] | refractive index | surface tension liquid-gas [mN/m]
[1], 293.15 K, w2 = 0.0081 | – | 1.4993 | –
[1], 293.15 K, w2 = 0.0102 | – | 1.4968 | –
[1], 293.15 K, w2 = 0.0121 | – | 1.4944 | –
[1], 293.15 K, w2 = 0.014 | – | 1.4918 | –
[1], 293.15 K, w2 = 0.0161 | – | 1.4896 | –
[1], 298.15 K, w2 = 0.0081 | – | 1.4982 | –
[1], 298.15 K, w2 = 0.0102 | – | 1.4954 | –
[1], 298.15 K, w2 = 0.0121 | – | 1.4928 | –
[1], 298.15 K, w2 = 0.014 | – | 1.4907 | –
[1], 298.15 K, w2 = 0.0161 | – | 1.4879 | –
[1], 303.15 K, w2 = 0.0081 | – | 1.497 | –
[1], 303.15 K, w2 = 0.0102 | – | 1.4941 | –
[1], 303.15 K, w2 = 0.0121 | – | 1.4916 | –
[1], 303.15 K, w2 = 0.014 | – | 1.4895 | –
[1], 303.15 K, w2 = 0.0161 | – | 1.4869 | –
[1], 308.15 K, w2 = 0.0081 | – | 1.4955 | –
[1], 308.15 K, w2 = 0.0102 | – | 1.4927 | –
[1], 308.15 K, w2 = 0.0121 | – | 1.4907 | –
[1], 308.15 K, w2 = 0.014 | – | 1.4884 | –
[1], 308.15 K, w2 = 0.0161 | – | 1.4858 | –
[1], 313.15 K, w2 = 0.0081 | – | 1.4943 | –
[1], 313.15 K, w2 = 0.0102 | – | 1.4915 | –
[1], 313.15 K, w2 = 0.0121 | – | 1.4893 | –
[1], 313.15 K, w2 = 0.014 | – | 1.4872 | –
[1], 313.15 K, w2 = 0.0161 | – | 1.4845 | –
[1], 318.15 K, w2 = 0.0081 | – | 1.4931 | –
[1], 318.15 K, w2 = 0.0102 | – | 1.4904 | –
[1], 318.15 K, w2 = 0.0121 | – | 1.4879 | –
[1], 318.15 K, w2 = 0.014 | – | 1.4855 | –
[1], 318.15 K, w2 = 0.0161 | – | 1.4832 | –
[1], 323.15 K, w2 = 0.0081 | – | 1.4917 | –
[1], 323.15 K, w2 = 0.0102 | – | 1.4888 | –
[1], 323.15 K, w2 = 0.0121 | – | 1.4864 | –
[1], 323.15 K, w2 = 0.014 | – | 1.4838 | –
[1], 323.15 K, w2 = 0.0161 | – | 1.4814 | –
[2], 283.15 K, w2 = 0.0081 | 1121.2 | – | 45.7
[2], 283.15 K, w2 = 0.0091 | – | – | 45.9
[2], 283.15 K, w2 = 0.0102 | – | – | 46.1
[2], 283.15 K, w2 = 0.0118 | – | – | 46.3
[2], 283.15 K, w2 = 0.0129 | 1121.5 | – | –
[2], 283.15 K, w2 = 0.0131 | – | – | 46.6
[2], 283.15 K, w2 = 0.018 | 1121.8 | – | –
[2], 283.15 K, w2 = 0.0234 | 1122.2 | – | –
[2], 283.15 K, w2 = 0.0293 | 1122.6 | – | –
[2], 288.15 K, w2 = 0.0081 | 1118 | – | 45.5
[2], 288.15 K, w2 = 0.0091 | – | – | 45.7
[2], 288.15 K, w2 = 0.0102 | – | – | 45.9
[2], 288.15 K, w2 = 0.0118 | – | – | 46.2
[2], 288.15 K, w2 = 0.0129 | 1118.3 | – | –
[2], 288.15 K, w2 = 0.0131 | – | – | 46.4
[2], 288.15 K, w2 = 0.018 | 1118.7 | – | –
[2], 288.15 K, w2 = 0.0234 | 1119.1 | – | –
[2], 288.15 K, w2 = 0.0293 | 1119.5 | – | –
[2], 293.15 K, w2 = 0.0081 | 1114.8 | – | 45.3
[2], 293.15 K, w2 = 0.0091 | – | – | 45.5
[2], 293.15 K, w2 = 0.0102 | – | – | 45.7
[2], 293.15 K, w2 = 0.0118 | – | – | 46
[2], 293.15 K, w2 = 0.0129 | 1115.1 | – | –
[2], 293.15 K, w2 = 0.0131 | – | – | 46.2
[2], 293.15 K, w2 = 0.018 | 1115.5 | – | –
[2], 293.15 K, w2 = 0.0234 | 1115.9 | – | –
[2], 293.15 K, w2 = 0.0293 | 1116.3 | – | –
[2], 298.15 K, w2 = 0.0081 | 1111.5 | – | 45
[2], 298.15 K, w2 = 0.0091 | – | – | 45.2
[2], 298.15 K, w2 = 0.0102 | – | – | 45.4
[2], 298.15 K, w2 = 0.0118 | – | – | 45.7
[2], 298.15 K, w2 = 0.0129 | 1111.9 | – | –
[2], 298.15 K, w2 = 0.0131 | – | – | 45.9
[2], 298.15 K, w2 = 0.018 | 1112.3 | – | –
[2], 298.15 K, w2 = 0.0234 | 1112.7 | – | –
[2], 298.15 K, w2 = 0.0293 | 1113.1 | – | –
[2], 303.15 K, w2 = 0.0081 | 1108.4 | – | 44.8
[2], 303.15 K, w2 = 0.0091 | – | – | 45
[2], 303.15 K, w2 = 0.0102 | – | – | 45.2
[2], 303.15 K, w2 = 0.0118 | – | – | 45.5
[2], 303.15 K, w2 = 0.0129 | 1108.9 | – | –
[2], 303.15 K, w2 = 0.0131 | – | – | 45.8
[2], 303.15 K, w2 = 0.018 | 1109.3 | – | –
[2], 303.15 K, w2 = 0.0234 | 1109.7 | – | –
[2], 303.15 K, w2 = 0.0293 | 1110.2 | – | –
[2], 308.15 K, w2 = 0.0081 | 1105.4 | – | 44.5
[2], 308.15 K, w2 = 0.0091 | – | – | 44.7
[2], 308.15 K, w2 = 0.0102 | – | – | 44.9
[2], 308.15 K, w2 = 0.0118 | – | – | 45.2
[2], 308.15 K, w2 = 0.0129 | 1105.7 | – | –
[2], 308.15 K, w2 = 0.0131 | – | – | 45.5
[2], 308.15 K, w2 = 0.018 | 1106.2 | – | –
[2], 308.15 K, w2 = 0.0234 | 1106.6 | – | –
[2], 308.15 K, w2 = 0.0293 | 1107.1 | – | –
[2], 313.15 K, w2 = 0.0081 | 1102.2 | – | 44.2
[2], 313.15 K, w2 = 0.0091 | – | – | 44.4
[2], 313.15 K, w2 = 0.0102 | – | – | 44.6
[2], 313.15 K, w2 = 0.0118 | – | – | 44.9
[2], 313.15 K, w2 = 0.0129 | 1102.6 | – | –
[2], 313.15 K, w2 = 0.0131 | – | – | 45.2
[2], 313.15 K, w2 = 0.018 | 1103 | – | –
[2], 313.15 K, w2 = 0.0234 | 1103.4 | – | –
[2], 313.15 K, w2 = 0.0293 | 1103.9 | – | –
[2], 318.15 K, w2 = 0.0081 | 1099.2 | – | 43.7
[2], 318.15 K, w2 = 0.0091 | – | – | 43.9
[2], 318.15 K, w2 = 0.0102 | – | – | 44.1
[2], 318.15 K, w2 = 0.0118 | – | – | 44.4
[2], 318.15 K, w2 = 0.0129 | 1099.5 | – | –
[2], 318.15 K, w2 = 0.0131 | – | – | 44.6
[2], 318.15 K, w2 = 0.018 | 1099.9 | – | –
[2], 318.15 K, w2 = 0.0234 | 1100.3 | – | –
[2], 318.15 K, w2 = 0.0293 | 1100.7 | – | –
[2], 323.15 K, w2 = 0.0081 | 1096.1 | – | 43.3
[2], 323.15 K, w2 = 0.0091 | – | – | 43.5
[2], 323.15 K, w2 = 0.0102 | – | – | 43.7
[2], 323.15 K, w2 = 0.0118 | – | – | 44
[2], 323.15 K, w2 = 0.0129 | 1096.4 | – | –
[2], 323.15 K, w2 = 0.0131 | – | – | 44.2
[2], 323.15 K, w2 = 0.018 | 1096.8 | – | –
[2], 323.15 K, w2 = 0.0234 | 1097.2 | – | –
[2], 323.15 K, w2 = 0.0293 | 1097.6 | – | –
[2], 328.15 K, w2 = 0.0081 | 1092.9 | – | 42.9
[2], 328.15 K, w2 = 0.0091 | – | – | 43.1
[2], 328.15 K, w2 = 0.0102 | – | – | 43.3
[2], 328.15 K, w2 = 0.0118 | – | – | 43.5
[2], 328.15 K, w2 = 0.0129 | 1093.2 | – | –
[2], 328.15 K, w2 = 0.0131 | – | – | 43.8
[2], 328.15 K, w2 = 0.018 | 1093.6 | – | –
[2], 328.15 K, w2 = 0.0234 | 1094 | – | –
[2], 328.15 K, w2 = 0.0293 | 1094.4 | – | –
